From ChEMBL document CHEMBL1154817, “Tartrolon D, a cytotoxic macrodiolide from the marine-derived actinomycete Streptomyces sp. MDG-04-17-069” (J Nat Prod, 2009) come the findings set out here.

One assay deals with L929. Nature of the assay: Cytotoxicity against mouse L929 cells. It is filed as functional.
The test system of another assay is MDA-MB-231. Nature of the assay: Cytotoxicity against human MDA-MB-231 cells after 72 hrs by sulforhodamine B assay. Format: functional. The conditions noted are these: MDA-MB-231, 72 h.
The next assay concerns HT-29. Nature of the assay: Cytotoxicity against human HT-29 cells after 72 hrs by sulforhodamine B assay. Format: functional. The conditions noted are these: HT-29, 72 h. On the technique in general: In SRB staining, fixed cells bind dye roughly in proportion to their protein.
In another assay the test system is A549. Nature of the assay: Cytotoxicity against human A549 cells after 72 hrs by sulforhodamine B assay. Format: functional. The conditions noted are these: A549, 72 h.
A short description of assay [1]: Inhibition of hypoxia-induced HIF1 transcriptional activity.

In brackets after ≈: the same amount, converted by molar mass.

In the assay on L929, `C[C@@H]1C(=O)C[C@@H](O)CC/C=C/C=C\CC[C@H](C)OC(=O)C(O)[C@]2(O)O[C@@H](CC[C@H]2C)[C@H](C)C(=O)C[C@@H](O)CC/C=C/C=C\CC[C@H](C)OC(=O)C(O)[C@]2(O)O[C@H]1CC[C@H]2C` (some centres not stated) [TARTROLON A] had an MIC of 70 mg/L (≈ 82.4 µM).
In general, GI50 refers to the concentration that inhibits growth by half. Usually TGI stands for the concentration at which net growth stops. A lower TGI goes with greater sensitivity of the cells. Broadly, the LC50 is the concentration lethal to half of the exposed cells or organisms. High values mean lower toxicity, low ones greater toxicity. Regarding `C[C@@H]1CC[C@H]2CC(=O)C[C@@H](O)CC/C=C/C=C\CC[C@H](C)OC(=O)C(O)[C@]3(O)O[C@@H](CC[C@H]3C)CC(=O)C[C@@H](O)CC/C=C/C=C\CC[C@H](C)OC(=O)C(O)[C@]1(O)O2` (some centres not stated) [TARTROLON D], in the assay on MDA-MB-231, the GI50 is 0.79 µM, the LC50 (50% lethal concentration) is 11 µM and total growth inhibition (TGI) required 3.41 µM. Also, in the assay with HT-29, the GI50 was determined as 0.31 µM, the LC50 (concentration killing 50% of cells) was 8.41 µM and net growth stopped (TGI) at 1.71 µM. In the assay on A549, this compound had a GI50 of 0.16 µM, a median lethal concentration (LC50) of 8.05 µM and a TGI of 1.46 µM.
In the case of `COc1cccc2c1C(=O)c1c(O)c3c(c(O)c1C2=O)C[C@@](O)(C(C)=O)C[C@@H]3O[C@H]1C[C@H](N)[C@H](O)[C@H](C)O1` [DAUNORUBICIN], the figures for the concentration for 50% growth inhibition (GI50) in the assay with MDA-MB-231, in the assay with HT-29 and in the assay on A549 were 0.02 µM, 0.07 µM and 0.08 µM, respectively. Further, the concentration for total growth inhibition (TGI) in the assay on MDA-MB-231 came to 0.12 µM; with HT-29, 0.33 µM; with A549 it was 0.17 µM.
In general, IC50 refers to the concentration that gives 50% inhibition. Lower therefore signals higher potency. `C[C@@H]1C(=O)C[C@@H](O)CC/C=C/C=C\CC[C@H](C)OC(=O)[C@@H]2O[B-]34O[C@@H](C(=O)O[C@@H](C)CC/C=C\C=C\CC[C@H](O)CC(=O)[C@@H](C)[C@@H]5CC[C@](C)(O)[C@]2(O5)O3)[C@@]2(O[C@H]1CC[C@]2(C)O)O4` [TARTROLON C]: the IC50 in assay [1] was determined as 0.17 mg/L.
